Measurements from publication PMC7153899, “Anti-hyperglycemic activity of myricetin, through inhibition of DPP-4 and enhanced GLP-1 levels, is attenuated by co-ingestion with lectin-rich protein” (PLoS ONE, 2020).

Target: T1, Dipeptidyl peptidase-4 (DPP-4) (Homo sapiens, UniProt P27487)
T1 construct: gene DPP4; recombinant DPP-4 (human)
Assay: colorimetric enzyme assay with recombinant human DPP-4, gly-pro p-nitroanilide substrate, absorbance […] nm
Type: biochemical

T1 sequence (P27487 39-766): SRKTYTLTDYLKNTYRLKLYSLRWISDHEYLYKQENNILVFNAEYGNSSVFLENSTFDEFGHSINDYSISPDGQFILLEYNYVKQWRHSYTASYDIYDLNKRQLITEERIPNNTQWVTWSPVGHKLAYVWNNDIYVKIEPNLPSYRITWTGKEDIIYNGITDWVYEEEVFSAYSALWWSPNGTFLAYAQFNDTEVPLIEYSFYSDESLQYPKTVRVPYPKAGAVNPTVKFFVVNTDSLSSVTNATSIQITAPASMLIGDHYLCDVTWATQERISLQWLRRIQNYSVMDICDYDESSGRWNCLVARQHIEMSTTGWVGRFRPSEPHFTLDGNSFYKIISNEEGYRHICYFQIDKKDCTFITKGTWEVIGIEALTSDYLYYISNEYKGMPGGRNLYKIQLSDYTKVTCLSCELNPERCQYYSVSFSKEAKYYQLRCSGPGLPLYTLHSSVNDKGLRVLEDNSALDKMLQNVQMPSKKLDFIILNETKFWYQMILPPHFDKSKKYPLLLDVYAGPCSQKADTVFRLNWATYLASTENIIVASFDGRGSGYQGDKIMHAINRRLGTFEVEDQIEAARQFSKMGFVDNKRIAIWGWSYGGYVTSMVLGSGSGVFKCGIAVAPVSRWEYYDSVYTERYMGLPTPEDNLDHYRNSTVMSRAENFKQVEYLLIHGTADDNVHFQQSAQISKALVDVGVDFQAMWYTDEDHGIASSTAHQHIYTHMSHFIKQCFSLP

IC50: 4.8 ± 0.36 µM
Compound: O=c1c(O)c(-c2cc(O)c(O)c(O)c2)oc2cc(O)cc(O)c12 [myricetin]
